According to publication PMC5590943, “Pharmacological characterisation of S 47445, a novel positive allosteric modulator of AMPA receptors” (PLoS ONE, 2017):

Key:
[1] = test system: rat primary cortical cell cultures; experiment: LDH release toxicity assay on rat primary cortical cell cultures; conditions: S 47445 10 μM
[2] = target: AMPA/Kainate chimera GluA1(K2NTD) (Homo sapiens, UniProt P42261+Q13002); experiment: Glutamate-evoked current in oocytes expressing AMPA/Kainate chimera; format: cell-based
AMPA/Kainate chimera GluA1(K2NTD), sequence (Q13002+P42261 fused, change not shown): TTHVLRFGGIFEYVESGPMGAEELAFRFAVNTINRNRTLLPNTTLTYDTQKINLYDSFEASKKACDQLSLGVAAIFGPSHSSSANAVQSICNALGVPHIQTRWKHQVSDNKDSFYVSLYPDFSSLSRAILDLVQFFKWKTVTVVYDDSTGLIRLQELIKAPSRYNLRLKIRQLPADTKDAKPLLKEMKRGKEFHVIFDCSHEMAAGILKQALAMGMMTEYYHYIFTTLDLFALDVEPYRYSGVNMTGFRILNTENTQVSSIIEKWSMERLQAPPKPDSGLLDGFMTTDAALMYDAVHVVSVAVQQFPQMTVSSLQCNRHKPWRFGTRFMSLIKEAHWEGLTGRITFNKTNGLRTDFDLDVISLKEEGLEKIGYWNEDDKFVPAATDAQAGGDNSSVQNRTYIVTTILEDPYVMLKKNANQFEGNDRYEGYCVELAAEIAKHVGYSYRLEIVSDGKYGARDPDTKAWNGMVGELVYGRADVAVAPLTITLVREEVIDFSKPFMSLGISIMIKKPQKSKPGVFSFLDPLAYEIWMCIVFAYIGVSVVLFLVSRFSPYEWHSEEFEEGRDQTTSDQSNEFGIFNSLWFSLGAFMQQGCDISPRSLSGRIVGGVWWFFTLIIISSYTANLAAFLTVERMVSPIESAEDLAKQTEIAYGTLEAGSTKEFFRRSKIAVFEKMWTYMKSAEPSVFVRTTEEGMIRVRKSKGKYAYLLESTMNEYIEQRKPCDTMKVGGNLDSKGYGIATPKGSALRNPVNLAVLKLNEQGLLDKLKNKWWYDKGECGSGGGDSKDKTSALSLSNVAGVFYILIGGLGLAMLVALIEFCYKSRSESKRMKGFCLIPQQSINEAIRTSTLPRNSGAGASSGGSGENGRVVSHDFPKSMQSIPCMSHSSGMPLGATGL
Method: (§1) Compounds were tested by bath application.

[3] = test system: PDE1; experiment: Enzyme and cell-based assay, [3H]cAMP + cAMP (1 μM)
[4] = target: human GluK2 kainate receptors (Homo sapiens, UniProt Q13002); experiment: Glutamate-evoked current in oocytes expressing kainate receptors; conditions: up to 100 μM; n = 12
human GluK2 kainate receptors, sequence (Q13002 32-908): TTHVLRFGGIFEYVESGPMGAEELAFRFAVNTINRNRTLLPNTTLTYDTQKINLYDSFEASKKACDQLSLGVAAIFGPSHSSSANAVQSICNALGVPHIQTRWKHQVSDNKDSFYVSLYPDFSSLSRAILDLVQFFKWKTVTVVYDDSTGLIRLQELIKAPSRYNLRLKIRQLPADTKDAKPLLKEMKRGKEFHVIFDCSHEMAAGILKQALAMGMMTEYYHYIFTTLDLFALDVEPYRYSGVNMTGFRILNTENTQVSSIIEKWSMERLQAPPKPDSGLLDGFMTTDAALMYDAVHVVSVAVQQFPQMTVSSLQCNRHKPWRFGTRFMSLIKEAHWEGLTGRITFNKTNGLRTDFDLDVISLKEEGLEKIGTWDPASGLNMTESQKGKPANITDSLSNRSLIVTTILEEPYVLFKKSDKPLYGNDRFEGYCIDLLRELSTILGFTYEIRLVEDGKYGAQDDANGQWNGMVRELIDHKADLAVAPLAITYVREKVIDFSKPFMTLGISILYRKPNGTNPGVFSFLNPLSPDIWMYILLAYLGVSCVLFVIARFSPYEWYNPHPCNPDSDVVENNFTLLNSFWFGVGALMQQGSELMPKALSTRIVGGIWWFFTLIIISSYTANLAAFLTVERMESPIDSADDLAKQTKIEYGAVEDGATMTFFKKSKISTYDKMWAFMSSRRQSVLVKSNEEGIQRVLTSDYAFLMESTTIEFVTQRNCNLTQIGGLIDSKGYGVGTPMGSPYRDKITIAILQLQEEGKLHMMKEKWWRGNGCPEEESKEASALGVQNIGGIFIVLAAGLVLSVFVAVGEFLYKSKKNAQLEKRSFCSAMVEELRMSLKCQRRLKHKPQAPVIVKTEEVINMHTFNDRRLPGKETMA

[5] = test system: Male Wistar rats; experiment: Functional observation battery in rats (Irwin); format: in vivo, rat
Method: Any effects on body temperature were also assessed. Methods were adapted from those described by Irwin, 1968 for detecting behavioural effects in mice.
Male Wistar rats (Depré breeding centre, France), 6 weeks of age (160.0–190.6 g) on the day of randomisation were used. On the day of the test, animals were first scored using the Irwin standardised observation battery, and the body temperature was measured to establish baseline measurements. Groups of rats were then orally treated with S 47445 (50, 200, 500 and 1000 mg/kg) or its vehicle or clonidine, a reference item (3 mg/kg in water). The Irwin scores as well as measurement of body temperature were performed again at 1, 2, 4, 6 and 24 hours after administration of S 47445. Individual observation data were presented as a score attributed to each behavioural sign (intensity and relevance). For observations with absence or presence, the number of animals with the sign was provided per group. For other observations, the median value for each sign per time was presented per group. For body temperature, data were expressed as variations from predose values. […] The treatment effect on body temperature was analysed using one way ANOVA followed by Newman-Keul’s post hoc test. […]

[6] = target: Estrogen a (h) (ERa) (Homo sapiens, UniProt P03372); experiment: Binding assay, fluormone ES2
Estrogen a (h) (ERa), sequence (P03372 whole entry): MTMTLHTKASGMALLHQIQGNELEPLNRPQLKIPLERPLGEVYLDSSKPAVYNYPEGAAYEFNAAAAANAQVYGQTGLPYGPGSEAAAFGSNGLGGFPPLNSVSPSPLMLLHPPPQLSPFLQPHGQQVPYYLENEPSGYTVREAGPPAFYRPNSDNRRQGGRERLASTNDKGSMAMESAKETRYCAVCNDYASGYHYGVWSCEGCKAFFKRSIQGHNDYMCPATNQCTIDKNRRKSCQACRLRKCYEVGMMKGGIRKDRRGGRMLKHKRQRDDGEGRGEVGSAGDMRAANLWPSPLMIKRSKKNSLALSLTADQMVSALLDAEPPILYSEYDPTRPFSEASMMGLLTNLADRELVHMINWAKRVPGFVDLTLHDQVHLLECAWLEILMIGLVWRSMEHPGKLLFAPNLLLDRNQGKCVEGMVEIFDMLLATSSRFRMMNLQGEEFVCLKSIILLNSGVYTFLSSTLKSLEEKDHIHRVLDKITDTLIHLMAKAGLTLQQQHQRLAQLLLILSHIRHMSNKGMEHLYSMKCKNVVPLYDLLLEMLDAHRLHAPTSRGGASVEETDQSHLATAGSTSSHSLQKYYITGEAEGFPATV

[7] = target: T1, GluA1flop/GluA2flip AMPA receptors (Homo sapiens, UniProt P42261+P42262, Q607R); experiment: 10 μM glutamate-evoked currents in Xenopus laevis oocytes expressing GluA1flop/GluA2flip (repetitive pulses, GYKI52466); format: cell-based; conditions: for EC50: n = 3
T1 construct: host or cells: Xenopus laevis oocytes
T1 sequence (P42261 19-906): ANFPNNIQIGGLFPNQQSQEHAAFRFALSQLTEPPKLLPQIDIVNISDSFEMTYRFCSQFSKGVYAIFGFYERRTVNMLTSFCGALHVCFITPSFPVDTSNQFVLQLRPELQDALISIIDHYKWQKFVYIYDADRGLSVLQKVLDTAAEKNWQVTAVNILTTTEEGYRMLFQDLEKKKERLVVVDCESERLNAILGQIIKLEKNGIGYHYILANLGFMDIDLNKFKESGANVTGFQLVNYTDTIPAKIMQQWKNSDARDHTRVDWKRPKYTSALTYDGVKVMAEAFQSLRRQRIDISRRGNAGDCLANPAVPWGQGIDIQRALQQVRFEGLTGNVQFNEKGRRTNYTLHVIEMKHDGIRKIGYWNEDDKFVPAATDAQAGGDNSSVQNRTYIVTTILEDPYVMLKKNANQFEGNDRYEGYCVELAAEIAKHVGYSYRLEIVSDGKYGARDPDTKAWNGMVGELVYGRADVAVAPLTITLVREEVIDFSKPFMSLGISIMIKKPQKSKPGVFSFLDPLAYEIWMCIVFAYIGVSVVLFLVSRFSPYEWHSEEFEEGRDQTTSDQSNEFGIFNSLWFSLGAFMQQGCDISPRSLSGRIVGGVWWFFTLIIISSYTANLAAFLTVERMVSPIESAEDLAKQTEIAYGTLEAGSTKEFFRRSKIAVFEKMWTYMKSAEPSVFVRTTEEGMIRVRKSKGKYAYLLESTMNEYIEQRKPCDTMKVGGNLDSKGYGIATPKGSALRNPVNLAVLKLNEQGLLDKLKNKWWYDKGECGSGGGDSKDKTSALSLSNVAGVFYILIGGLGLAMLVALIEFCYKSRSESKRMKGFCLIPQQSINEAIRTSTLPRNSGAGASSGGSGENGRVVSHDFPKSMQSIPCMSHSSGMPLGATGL
T1 sequence (P42262 22-883 isoform P42262-2 Q607R limits assumed): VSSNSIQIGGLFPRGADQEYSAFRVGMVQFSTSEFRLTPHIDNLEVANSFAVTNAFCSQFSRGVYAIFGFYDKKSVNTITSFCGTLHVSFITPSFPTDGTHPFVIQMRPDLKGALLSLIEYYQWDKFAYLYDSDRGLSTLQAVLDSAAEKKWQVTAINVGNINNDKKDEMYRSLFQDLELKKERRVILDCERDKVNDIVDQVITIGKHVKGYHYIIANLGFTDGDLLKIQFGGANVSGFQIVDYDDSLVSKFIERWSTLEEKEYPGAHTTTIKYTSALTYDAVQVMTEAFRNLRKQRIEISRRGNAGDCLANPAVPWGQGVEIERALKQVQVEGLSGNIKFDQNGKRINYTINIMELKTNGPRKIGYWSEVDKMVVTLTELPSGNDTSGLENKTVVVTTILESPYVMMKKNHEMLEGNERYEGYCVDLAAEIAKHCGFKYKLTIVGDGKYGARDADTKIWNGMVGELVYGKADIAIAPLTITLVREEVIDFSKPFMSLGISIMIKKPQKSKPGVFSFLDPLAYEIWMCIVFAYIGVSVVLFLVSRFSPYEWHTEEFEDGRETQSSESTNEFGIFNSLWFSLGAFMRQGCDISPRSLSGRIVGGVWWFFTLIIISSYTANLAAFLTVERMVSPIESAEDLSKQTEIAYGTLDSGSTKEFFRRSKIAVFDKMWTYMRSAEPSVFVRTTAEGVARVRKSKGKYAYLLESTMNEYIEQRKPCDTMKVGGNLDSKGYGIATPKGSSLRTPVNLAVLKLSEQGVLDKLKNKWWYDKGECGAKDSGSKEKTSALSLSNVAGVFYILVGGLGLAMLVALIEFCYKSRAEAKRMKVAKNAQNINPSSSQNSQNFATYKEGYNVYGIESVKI
Method: as §1
To test the inhibition, the selective AMPA receptor antagonist GYKI52446 was used from 10 to 1000 μM on the potentiation caused by S 47445 (1 μM).
EC50 were determined either using Matlab (Mathworks inc., Natick, USA) or SAS v9.2 (SAS Institute inc., Cary, USA) softwares. To have a comparative value between the tested drugs when EC50 could not be determined (absence of plateau at high concentrations), the EC2X was determined. EC2X corresponds to the concentrations of the drug responsible for a two-fold increase in the amplitude of the current.

[8] = test system: about a hundred receptors, enzymes, transporters and channels; experiment: CEREP panel, competition binding and enzyme assays
[9] = test system: I1; experiment: Binding assay, [3H]clonidine (+ 10 μM RX821002)
[10] = target: p38a kinase (h) (Homo sapiens, UniProt Q16539); experiment: Enzyme and cell-based assay, ATP + ATF-2 (0.1 μM)
p38a kinase (h), sequence (Q16539 whole entry): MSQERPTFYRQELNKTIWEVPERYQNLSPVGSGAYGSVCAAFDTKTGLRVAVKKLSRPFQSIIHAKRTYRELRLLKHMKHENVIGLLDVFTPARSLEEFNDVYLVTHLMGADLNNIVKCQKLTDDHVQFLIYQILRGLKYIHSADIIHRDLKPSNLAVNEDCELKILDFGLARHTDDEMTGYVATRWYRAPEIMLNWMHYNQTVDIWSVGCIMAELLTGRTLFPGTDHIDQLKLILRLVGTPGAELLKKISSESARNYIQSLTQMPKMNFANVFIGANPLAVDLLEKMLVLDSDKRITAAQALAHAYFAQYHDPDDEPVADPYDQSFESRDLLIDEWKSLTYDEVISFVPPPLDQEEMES

[11] = test system: K^+V channel; experiment: Binding assay, [125I]α-dendrotoxin
[12] = test system: NMDA; experiment: Binding assay, [3H]CGP 39653, rat cerebral cortex membranes

O=C1c2cc3nnn(CCc4cccc(F)c4)c(=O)c3cc2OCN1C1CC1 [S 47445, 8-cyclopropyl-3-[2-(3-fluorophenyl)ethyl]-7,8-dihydro-3H-[1,3]oxazino[6,5-g][1,2,3]benzotriazine-4,9-dione]
Reduction of glutamate-induced LDH activity ([1]; glutamate 50 μM): 32.2%
Reduction of glutamate-induced LDH activity ([1]; glutamate 75 μM): 50.9%
Reduction of glutamate-induced LDH activity ([1]; glutamate 100 μM): 49.0%
EC50 [2]: 4.2 µM
% Inhibition of control specific binding ([3]; S 47445 1.0E-05 M): 10%
% Inhibition of control specific binding ([3]; S 47445 1.0E-07 M): 1%
Effect on glutamate-evoked current [4]: did not modify glutamate-evoked current
Body temperature and behavior ([5]; 50, 200, 500 and 1000 mg/kg oral acute): no significant effect
Spontaneous epileptic seizures ([5]; up to 1000 mg/kg p.o.): No occurrence
% Inhibition of control specific binding ([6]; S 47445 1.0E-05 M): 5%
% Inhibition of control specific binding ([6]; S 47445 1.0E-07 M): 4%
EC50 ([7]; EC50 of potentiation in absence of GYKI52466, 10 μM glutamate): 3.23 ± 0.5 µM
EC50 ([7]; EC50 of potentiation in presence of 100μM of GYKI52466, 10 μM glutamate): 1.99 ± 0.3 µM
Effect on glutamate-evoked currents with repetitive glutamate pulses ([7]; S 47445 0.1 and 0.3 μM, 10 μM glutamate 20 s, 1/min): progressive potentiation of the glutamate-evoked currents from the second pulse of glutamate
Percentage of inhibition of control value ([8]; 10 μM S 47445, all assays of S1 Table): lower than 50%
Ki ([8]; read-out: Ki values in all these assays, inferred from <50% inhibition at 10 μM): > 10 µM
% Inhibition of control specific binding ([9]; S 47445 1.0E-05 M): 21%
% Inhibition of control specific binding ([9]; S 47445 1.0E-07 M): 10%
% Inhibition of control specific binding ([10]; S 47445 1.0E-05 M): 4%
% Inhibition of control specific binding ([10]; S 47445 1.0E-07 M): 2%
% Inhibition of control specific binding ([11]; S 47445 1.0E-05 M): -2%
% Inhibition of control specific binding ([11]; S 47445 1.0E-07 M): -6%
% Inhibition of control specific binding ([12]; S 47445 1.0E-05 M): -1%
% Inhibition of control specific binding ([12]; S 47445 1.0E-07 M): 2%
Ki ([12]; read-out: Ki, glutamate binding site, n = 2): > 10 µM
